Read-outs that look alike come from different tables or passages of the source.
Assay type: in vivo
Settings: Mecadox 1.0% in diet, no SDEP
Experimental: Thirty-six 18 day old piglets (6.3±0.2 kg) were allocated to six treatment groups, blocked by weight and given ad libitum access to feed and water (n=6/group)
Each group was administered varying doses of SDEP containing antibodies to ETEC K88 and/or antibiotics for 28 days (Table 1).
Animals were weighed at the end of phase 1 (14 d) and phase 2 (28 d), and average daily gains were calculated.
Thirty six crossbred (GAP Genetics, Winnipeg, MB, Canada) 18-d old pigs with an initial weight of 6.3±0.2 kg were allotted into six treatment groups: (1) control; (2) 0.1% SDEP; (3) 0.1% SDEP+antibiotics; (4) control+antibiotics; (5) 0.4% SDEP; (6) 0.4% SDEP+antibiotics.
Pigs were housed in stainless steel pens equipped with nipple waterers, stainless steel feeders, and plastic-coated expanded metal floors. The pens were located in an environmentally regulated building maintained at 25±2° C. with a 12-h light/dark cycle. Body weight and feed consumption were recorded after every phase and ad libitum access to feed and water was provided during the entire period of the study.
There were three pens per treatment and two pigs per pen. The pigs were fed a standard pig starter diet in phases 1 (Table 3) and 2 (Table 4). The diets were with or without spray-dried egg powder (SDEP) containing E. Coli K-88 antibodies and with or without antibiotics. The diets were fed in two phases. Both phases were fed for 14 days each. Pigs were allotted to treatments based on weaned weights and dam. Feed and water was available always. Pigs and feeders were weighed at the end of each phase to determine weight gains and feed disappearance.

Structure (SMILES): COC(=O)N/N=C/c1c[n+]([O-])c2ccccc2[n+]1[O-] [Mecadox]
- Avg. daily gain / ADG (phase 1 (days 0-14)): 240 g
- Avg. daily intake / ADFI (phase 1 (days 0-14)): 328 g
- Mean feed/gain (phase 1 (days 0-14)): 1.63
- Mean final weight / End Weight (phase 1 (days 0-14)): 9.6 kg
- G:F (phase 1): 0.72
- Avg. daily gain / ADG (phase 2 (days 14-28)): 421 g
- Avg. daily intake / ADFI (phase 2 (days 14-28)): 532 g
- Mean feed/gain (phase 2 (days 14-28)): 1.35
- Mean final weight / End Weight (phase 2 (days 14-28)): 15.4 kg
- G:F (phase 2): 0.74

Source: patent US7713527B2, “Specific avian egg antibodies for disease prevention and improvement of growth performance” (priority 2006, dated 2010)
